pIC50: −log10 of the molar value. A value given as a limit tells only on which side of the number the result lay.

Consider 21 compounds from US20230310445A1, “LOX ENZYME INHIBITING METHODS AND COMPOSITIONS” (ANOVIA BIOSCIENCES, INC., priority 2020, published 2023).

The test has as its target T1, Recombinant human LOXL2 (lysyl oxidase like 2) (Homo sapiens, UniProt Q9Y4K0).
T1 construct: purchased R&D systems
T1 sequence (Q9Y4K0 26-774): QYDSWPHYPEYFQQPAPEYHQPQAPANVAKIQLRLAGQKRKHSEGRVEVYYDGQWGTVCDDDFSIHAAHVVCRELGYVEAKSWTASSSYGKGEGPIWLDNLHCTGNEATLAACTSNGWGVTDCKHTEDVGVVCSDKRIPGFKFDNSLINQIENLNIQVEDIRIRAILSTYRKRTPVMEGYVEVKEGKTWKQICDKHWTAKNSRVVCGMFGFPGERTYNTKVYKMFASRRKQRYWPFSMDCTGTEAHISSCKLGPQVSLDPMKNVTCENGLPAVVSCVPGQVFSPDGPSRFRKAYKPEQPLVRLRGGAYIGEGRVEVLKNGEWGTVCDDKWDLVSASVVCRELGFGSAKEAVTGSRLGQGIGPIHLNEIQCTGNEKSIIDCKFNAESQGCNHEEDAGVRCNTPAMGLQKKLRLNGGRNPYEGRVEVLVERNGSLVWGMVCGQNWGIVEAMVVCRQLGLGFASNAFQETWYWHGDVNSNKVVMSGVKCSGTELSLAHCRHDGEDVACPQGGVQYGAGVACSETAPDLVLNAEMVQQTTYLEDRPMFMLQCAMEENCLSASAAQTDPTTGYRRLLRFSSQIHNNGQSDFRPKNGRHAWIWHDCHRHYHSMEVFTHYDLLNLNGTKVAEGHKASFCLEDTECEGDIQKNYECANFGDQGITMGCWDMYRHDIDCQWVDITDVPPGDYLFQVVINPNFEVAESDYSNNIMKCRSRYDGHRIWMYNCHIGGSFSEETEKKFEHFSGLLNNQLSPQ
Put plainly: LOXL2 inhibition assay (fluorometric, cadaverine/Amplex Red/HRP). The format is biochemical. The settings on record: IC50 class; recombinant human LOXL2, cadaverine substrate; read-out: Activity Range LOXL2. Summed up:
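Both enzymes assayed in 1.2 M urea, 50 mM sodium borate pH 8.0, 10 mM CaCl, with 30 min compound–enzyme preincubation at 37° C before cadaverine/Amplex Red/HRP addition. Fluorescence followed 60 min at 37° C; linear-slope rates, background-subtracted, as % of DMSO control, fitted by 4-parameter variable-slope curve (bottom fixed at 0).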
In the case of `CS(=O)(=O)[C@H]1C[C@@H](S(=O)(=O)c2cccc(CN)c2)CN(c2ccccc2)C1` (racemic) [Example 23, cis-(3-((-5-(Methylsulfonyl)-1-phenylpiperidin-3-yl)sulfonyl)phenyl)methanamine], the pIC50 was at least 6.30. As to `CS(=O)(=O)N1C[C@H](Oc2cccc(CN)c2)C[C@H](c2ccccc2F)C1` (racemic) [Example 70, cis-(3-((5-(2-Fluorophenyl)-1-(methylsulfonyl)piperidin-3-yl)oxy)phenyl)methanamine 2,2,2-trifluoroacetate], the pIC50 is at least 6.30. For the compound `CN(C)C(=O)N1C[C@@H](c2ccccc2)C[C@@H](S(=O)(=O)c2cccc(CN)c2)C1.O=C(O)C(F)(F)F` (racemic) [Example 74, cis-3-((3-(Aminomethyl)phenyl)sulfonyl)-N,N-dimethyl-5-phenylpiperidine-1-carboxamide 2,2,2-trifluoroacetate], the pIC50 was at least 6.30.

Consider `NCc1ccc(S(=O)(=O)N2C[C@H](C(=O)N3CCS(=O)(=O)CC3)C[C@@H](c3ccccc3)C2)s1.O=C(O)C(F)(F)F` (racemic) [Example 75B, trans-(1-((5-(Aminomethyl)thiophen-2-yl)sulfonyl)-5-phenylpiperidin-3-yl)(1,1-dioxidothiomorpholino)methanone 2,2,2-trifluoroacetate], for which the pIC50 is at least 6.30. In the case of `CS(=O)(=O)[C@@H]1C[C@@H](S(=O)(=O)c2cccc(CN)c2)CN(c2ccccc2)C1` (racemic) [Example 79, trans-(3-((-5-(Methylsulfonyl)-1-phenylpiperidin-3-yl)sulfonyl)phenyl)methanamine], the pIC50 is at least 6.30. On to `NCc1cccc(S(=O)(=O)N2C[C@H](C(=O)N3CCS(=O)(=O)CC3)C[C@@H](c3ccccc3)C2)c1` (racemic) [Example 85, trans-(1-((3-(Aminomethyl)phenyl)sulfonyl)-5-phenylpiperidin-3-yl)(1,1-dioxidothiomorpholino)methanone 2,2,2-trifluoroacetate], for which the pIC50 was at least 6.30. For the compound `CS(=O)(=O)N1CCN(C(=O)[C@H]2C[C@@H](c3ccccc3F)CN(S(=O)(=O)c3ccc(CN)s3)C2)CC1.O=C(O)C(F)(F)F` (racemic) [Example 91, cis-(1-((5-(Aminomethyl)thiophen-2-yl)sulfonyl)-5-(2-fluorophenyl)piperidin-3-yl)(4-(methylsulfonyl)piperazin-1-yl)methanone 2,2,2-trifluoroacetate], the pIC50 was at least 6.30. On to `CS(=O)(=O)[C@H]1C[C@@H](S(=O)(=O)c2cccc(CN)c2)CN(c2ccccc2F)C1` (racemic) [Example 92, cis-(3-((-1-(2-Fluorophenyl)-5-(methylsulfonyl)piperidin-3-yl)sulfonyl)phenyl)methanamine 2,2,2-trifluoroacetate], for which the pIC50 is at least 6.30. Turning to `NCc1cccc(S(=O)(=O)N2C[C@H](C(=O)N3CCS(=O)(=O)CC3)C[C@@H](c3ccccc3)C2)n1` (racemic) [Example 115T, trans-(1-((6-(Aminomethyl)pyridin-2-yl)sulfonyl)-5-phenylpiperidin-3-yl)(1,1-dioxidothiomorpholino)methanone 2,2,2-trifluoroacetate], the pIC50 is 4.52 to 6.00. `NCc1ccc(S(=O)(=O)N2C[C@@H](C(=O)N3CCOCC3)C[C@@H](C3CCCCC3)C2)s1.O=C(O)C(F)(F)F` (racemic) [Example 120, cis-(1-((5-(Aminomethyl)thiophen-2-yl)sulfonyl)-5-cyclohexylpiperidin-3-yl)(morpholino)methanone 2,2,2-trifluoroacetate]: the pIC50 was at least 6.30. With `NCc1ccnc(S(=O)(=O)N2C[C@@H](C(=O)N3CCS(=O)(=O)CC3)C[C@@H](c3ccccc3)C2)c1` (racemic) [Example 134, cis-(1-((4-(Aminomethyl)pyridin-2-yl)sulfonyl)-5-phenylpiperidin-3-yl)(1,1-dioxidothiomorpholino)methanone 2,2,2-trifluoroacetate] the figure was at least 6.30; with `NCc1cccc(S(=O)(=O)N2C[C@@H](C(=O)N3CCOCC3)C[C@@H](C3CCCCC3)C2)c1` (racemic) [Example 139, cis-(1-((3-(Aminomethyl)phenyl)sulfonyl)-5-cyclohexylpiperidin-3-yl)(morpholino)methanone], 6.00 to 6.30; with `NCc1cccc(S(=O)(=O)N2C[C@@H](C(=O)N3CCS(=O)(=O)CC3)C[C@@H](C3CCCCC3)C2)c1` (racemic) [Example 140, cis-(1-((3-(Aminomethyl)phenyl)sulfonyl)-5-cyclohexylpiperidin-3-yl)(1,1-dioxidothiomorpholino)methanone], 6.00 to 6.30. `CN(C)C(=O)[C@H]1C[C@@H](C2CCCCC2)CN(S(=O)(=O)c2cc(CN)ccn2)C1` (racemic) [Example 144, cis-1-((4-(Aminomethyl)pyridin-2-yl)sulfonyl)-5-cyclohexyl-N,N-dimethylpiperidine-3-carboxamide 2,2,2-trifluoroacetate]: the pIC50 is at least 6.30. Turning to `NCc1ccnc(S(=O)(=O)N2C[C@@H](C(=O)N3CCOCC3)C[C@@H](C3CCCCC3)C2)c1` (racemic) [Example 145, cis-(1-((4-(Aminomethyl)pyridin-2-yl)sulfonyl)-5-cyclohexylpiperidin-3-yl)(morpholino)methanone 2,2,2-trifluoroacetate], the pIC50 is at least 6.30. With `NCc1ccnc(S(=O)(=O)N2C[C@@H](C(=O)N3CCS(=O)(=O)CC3)C[C@@H](C3CCCCC3)C2)c1.O=C(O)C(F)(F)F` (racemic) [Example 146, cis-(1-((4-(Aminomethyl)pyridin-2-yl)sulfonyl)-5-cyclohexylpiperidin-3-yl)(1,1-dioxidothiomorpholino)methanone 2,2,2-trifluoroacetate] the figure was at least 6.30. With `NCc1ccnc(S(=O)(=O)N2C[C@@H](C(=O)N3CCOCC3)C[C@@H](c3ccccc3)C2)c1` (relative stereo) [Example 133, cis-(1-((4-(Aminomethyl)pyridin-2-yl)sulfonyl)-5-phenylpiperidin-3-yl)(morpholino)methanone 2,2,2-trifluoroacetate], the pIC50 was at least 6.30.

`CN(C)C(=O)[C@H]1C[C@@H](C2CCCCC2)CN(S(=O)(=O)c2cccc(CN)c2)C1` (relative stereo) [Example 138, cis-1-((3-(Aminomethyl)phenyl)sulfonyl)-5-cyclohexyl-N,N-dimethylpiperidine-3-carboxamide 2,2,2-trifluoroacetate]: the pIC50 was at least 6.30. Turning to `NCc1ccc(S(=O)(=O)N2C[C@H](C(=O)N3CCOCC3)C[C@H](c3ccccc3)C2)s1` [Example 13B, ((3R,5R)-1-((5-(aminomethyl)thiophen-2-yl)sulfonyl)-5-phenylpiperidin-3-yl)(morpholino)methanone], the pIC50 is at least 6.30.

With `NCc1ccnc(S(=O)(=O)N2C[C@@H](C(=O)N3CCOCC3)C[C@@H](c3ccccc3)C2)c1` [Example 133A, ((3S,5S)-1-((4-(aminomethyl)pyridin-2-yl)sulfonyl)-5-phenylpiperidin-3-yl)(morpholino)methanone 2,2,2-trifluoroacetate], the pIC50 is at least 6.30. On to `NCc1ccnc(S(=O)(=O)N2C[C@H](C(=O)N3CCOCC3)C[C@H](c3ccccc3)C2)c1` [Example 133B, ((3R,5R)-1-((4-(aminomethyl)pyridin-2-yl)sulfonyl)-5-phenylpiperidin-3-yl)(morpholino)methanone 2,2,2-trifluoroacetate], for which the pIC50 is at least 6.30.
